Results from patent publication US10463747B2, “Method of developing a vaccine using peptide-poly IC complexes” (H. Lee Moffitt Cancer Center and Research Institute, Inc., priority 2011, dated 2019).
Where no end group is shown, it is not given here.

Legend:
[1] = test system: CD8 T cell responses of peptide epitope Trp1455/9M (TAPDNLGYM); assay: Tetramer analysis of CD8 T cell responses after i.v. prime-boost vaccination with modified Trp1 peptide mixed with Poly-IC; assay type: in vivo, mice; settings: for immunogenicity of peptide epitope (CD8 T cell response, tetramer analysis): i.v. prime-boost 2 weeks apart, blood 7 days after boost; for immunogenicity of peptide epitope compared with hepta-arginine (R)7 tail: three-arginine tail, FIG. 2
Description: CD8 T cell responses of peptide epitope Trp1455/9M (TAPDNLGYM) (SEQ ID NO:2) containing 3 types of tails with charged amino acids (R, K or E) and a short linker (MFV) (SEQ ID NO:3) were measured by tetramer analysis after i.v. prime-boost (2 weeks apart) vaccination using 120 μg peptide mixed with 50 μg Poly-IC. These sequences correspond to (R)7-MFV-TAPDNLGYM (SEQ ID NO:4); (K)7-MFV-TAPDNLGYM (SEQ ID NO:5); and (E)7-MFV-TAPDNLGYM (SEQ ID NO:6) respectively. Immune responses in 3 individual mice measured 7 days after the boost in blood samples. Numbers below the rectangular gates correspond to the % tetramer positive (antigen-specific) cells of the total CD8 T cell population.
The sequence for the three-arginine tail is (R)3-MFVTAPDNLGYM (SEQ ID NO:7).
CD8 T cell responses of peptide epitope Trp1455/9M (TAPDNLGYM) (SEQ ID NO:2) containing 2 types of hydrophobic tails (LMFVMFV-TAPDNLGYM (SEQ ID NO:10) and (Pam)2KMFV-TAPDNLGYM (SEQ ID NO:11)) at the amino terminus end were measured by tetramer analysis after i.v. prime-boost (2 weeks apart) vaccination using peptide mixed with 50 μg Poly-IC. Immune responses in 3 individual mice measured 7 days after the boost in blood samples. Numbers below the rectangular gates correspond to the % tetramer positive (antigen-specific) cells of the total CD8 T cell population.
Comparison of CD8 T cell responses of peptide epitope (pam)2Trp455/9M [(Pam)2KMFV-TAPDNLGYM] (SEQ ID NO:11) injected together with 50 μg Poly-IC (top panels) or 3.5 hours after the Poly-IC (bottom panels). Immune response in 3 individual mice measured 7 days after an identical boost (12 days apart) in blood samples. Numbers below the rectangular gates correspond to the % tetramer positive (antigen-specific) cells of the total CD8 T cell population.

[2] = test system: CD8 T cell responses of peptide epitope HPV16-E749 (RAHYNIVTF); assay: Tetramer analysis of CD8 T cell responses after i.v. prime-boost vaccination with HPV16-E7 peptide mixed with Poly-IC; assay type: in vivo, mice; settings: for immunogenicity of peptide epitope (CD8 T cell response, tetramer analysis): i.v. prime-boost 2 weeks apart, 30 μg peptide mixed with 50 μg Poly-IC, blood 7 days after boost
Description: CD8 T cell responses of peptide epitope HPV16-E749 (RAHYNIVTF) (SEQ ID NO:8) and HPV16-E749/1A (AAHYNIVTF) (SEQ ID NO:9) measured by tetramer analysis after i.v. prime-boost (2 weeks apart) vaccination using 30 μg peptide mixed with 50 μg Poly-IC. Immune responses in 3 individual mice measured 7 days after the boost in blood samples. Numbers below the oval gates correspond to the % tetramer positive (antigen-specific) cells of the total CD8 T cell population.
Comparison of CD8 T cell responses of peptide epitope HPV16-E749 (RAHYNIVTF) (SEQ ID NO:8) injected together with 50 μg Poly-IC (top panels) or 5 hours after the Poly-IC (bottom panels). Immune responses in 3 individual mice measured 7 days after an identical boost (12 days apart) in blood samples. Numbers below the oval gates correspond to the % tetramer positive (antigen-specific) cells of the total CD8 T cell population.

MHC molecule = target: T1, MHC molecule (Mus musculus, UniProt P01899); settings: arginine to alanine substitution at position 1; cited from earlier work
T1 sequence (P01899 25-362): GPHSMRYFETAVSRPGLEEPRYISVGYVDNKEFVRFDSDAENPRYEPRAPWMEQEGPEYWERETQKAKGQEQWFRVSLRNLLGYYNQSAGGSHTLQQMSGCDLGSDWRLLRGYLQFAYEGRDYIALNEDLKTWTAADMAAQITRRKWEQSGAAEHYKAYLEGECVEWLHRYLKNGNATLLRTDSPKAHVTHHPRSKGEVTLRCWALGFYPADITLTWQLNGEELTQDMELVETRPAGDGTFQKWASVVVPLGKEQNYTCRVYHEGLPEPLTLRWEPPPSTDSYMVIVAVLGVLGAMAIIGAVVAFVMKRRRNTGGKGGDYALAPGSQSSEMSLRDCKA
T1 sequence (P01887 21-119 partner): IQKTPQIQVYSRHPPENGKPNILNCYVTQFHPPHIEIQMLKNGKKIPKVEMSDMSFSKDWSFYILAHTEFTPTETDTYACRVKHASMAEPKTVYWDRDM

[3] = test system: antigen-specific CD8 T lymphocytes; assay: Immunogenicity of modified peptides with immune adjuvants (general observations, adjuvant type and timing); settings: in vivo
Description: Arginine-containing peptides and the hydrophobic peptides are highly immunogenic when administered together with Poly-IC because they are able to form complexes. This is supported by the observations that if the Poly-IC is injected intravenously (i.v) 3.5 to 5 hr before the peptide (also i.v.), then the immune responses are dramatically lower as compared to circumstances when both peptide and Poly-IC are administered together (FIGS. 7 and 8).
The inventors are developing assays that measure the formation of these complexes. The data has been observed with Poly-IC, which is both a TLR3 agonist and ligand for RIG-1 like receptors, or cytoplasmic helicases.
There are examples of antigens (proteins or peptides) that are conjugated to antibodies specific for cell surface molecules expressed on antigen-presenting cells in order to specifically target the antigens to these cells to generate immune responses. […] This is likely due to the antibodies, while targeting the antigen to the appropriate antigen-presenting cell, are not sufficiently stimulatory to activate the cell to become optimal to stimulate the T cell responses. In addition, the ODN-CpG-peptide complexes are not captured as efficiently due to their relatively small size, as compared to the peptide-poly-IC complexes, by the scavenger receptors on the antigen-presenting cells. […]

[4] = 50 μg Poly-IC, 7 days after identical boost (12 days apart), blood
[5] = hydrophobic tail at amino terminus, peptide mixed with 50 μg Poly-IC

Q: Which “immune response, peptide injected together with Poly-IC versus 3.5 hours after the Poly-IC” value [1, 4] does the source give for “(Pam)2KMFV-TAPDNLGYM (KMFVTAPDNLGYM; not fully specified (residue 1); printed as (Pam)2KMFV-TAPDNLGYM)” here?
A: stronger immune responses

Q: And the “immunogenicity of peptide epitope (CD8 T cell response, tetramer analysis)” value [1, 5]?
A: increase the immunogenicity

Q: Which “immunogenicity of peptide epitope compared with hepta-arginine (R)7 tail” value [1] does the source give for “(R)3-MFVTAPDNLGYM (RRRMFVTAPDNLGYM; 3 arginine tail epitope Trp1 455/9m)” here?
A: increases immunogenicity of a peptide epitope similar to the results obtained from a hepta-arginine (R)7 tail

Q: And the “immunogenicity of peptide epitope compared with hepta-arginine (R)7 tail” value ([1]; listed as (R)3)?
A: function as well as peptides with seven arginines (R)7

Q: Which results are given for “(R)7-MFV-TAPDNLGYM (RRRRRRRMFVTAPDNLGYM; 7 arginine tail epitope Trp1 455/9m)”?
A: immunogenicity of peptide epitope (CD8 T cell response, tetramer analysis) ([1]; charged amino acid tail + MFV linker, 120 μg peptide mixed with 50 μg Poly-IC): increases the immunogenicity; immunogenicity of peptide epitope (CD8 T cell response, tetramer analysis) ([1]; charged amino acid tail + MFV linker, 120 μg peptide mixed with 50 μg Poly-IC, listed as R7): function as good immunogens

Q: What does the source list for “AAHYNIVTF (peptide epitope hpv16-e7 49/1a) [HPV16-E749/1A]”?
A: immunogenicity of peptide epitope (CD8 T cell response, tetramer analysis) [2]: reduces its immunogenicity; immunogenicity of peptide epitope (CD8 T cell response, tetramer analysis) ([2]; listed as AAHYNIVTF): reduced dramatically the immunogenicity; capacity of the peptide to bind to the MHC molecule and be recognized by T cells (MHC molecule): does not interfere with the capacity of the peptide to bind to the MHC molecule and be recognized by T cells

Q: For “LMFVMFV-TAPDNLGYM (LMFVMFVTAPDNLGYM; peptide epitope Trp1 455/9m with hydrophobic tail)”, which “immunogenicity of peptide epitope (CD8 T cell response, tetramer analysis)” value [1, 5] is on record?
A: increase the immunogenicity

Q: For “RAHYNIVTF (peptide epitope hpv16-e7 49) [HPV16-E749]”, which “immune response, peptide injected together with Poly-IC versus 5 hours after the Poly-IC” value [2, 4] is on record?
A: stronger immune responses

Q: And the “immunogenicity of peptide epitope (CD8 T cell response, tetramer analysis)” value [2]?
A: more immunogenic than AAHYNIVTF

Q: What does the source list for “polyinosinic:polycytidylic acid [poly-IC]”?
A: effect on immune responses of injection prior to the injection of peptide-poly-IC complexes [3]: inhibition of the immune responses; generation of secondary (booster) immune responses by adjuvant [3]: very potent
